Data on five molecules can be found in patent US6913895B1, “Methods for assaying transglycosylase reactions, and for identifying inhibitors thereof” (Advanced Medicine East, Inc., priority 1999, dated 2005).

Assay [1] relates to E. faecium 49624. Type of assay: cell-based.
Assay [2] concerns E. faecium CL4931 (VanA). Type of assay: cell-based.
Assay [3] has as its system E. faecalis 29212. Type of assay: cell-based.
For assay [4], the system named is E. faecalis CL4877 (VanB). Type of assay: cell-based.
The subject of assay [5] is S. aureus 29213. Type of assay: cell-based.
Assay [6] concerns transglycosylase. Kind of assay: Transglycosylase assay: peptidoglycan formation from lipid II accumulated in situ in bacterial membranes. Type of assay: biochemical, E. coli. The conditions noted are these: for inhibition of peptidoglycan formation: inhibitor added after formation of lipid II, Triton X-100 removed, 2 hours incubation, paper chromatography. The method, then:
Reactions were performed in the following buffer: 50 mM Tris (pH=8.0), 42 mM MgAc, 208 mM KCl, and 0.1% Triton X-100®. Each reaction was performed in a 50 ul reaction volume, containing 25 μg French Pressed bacterial membranes, 0.5 nmoles biotinylated UDP-MurNAc-pentapeptide 10% DMSO final concentration (added in conjunction with inhibitor), and 0.5 uM 14C-GlcNAc (≈20,000 CPM). All components except 14C-GlcNAc were pre-incubated together for 10 min at room temperature. The reactions were incubated an additional 1 hour after addition of ^14C-GlcNAc.
To make the reaction volume more manageable, the Triton was removed with the addition of Detergent-Out resin (Geno-Technology, St. Louis, Mo.). After binding up the inhibiting detergent, the reaction was further incubated for 2 hours to allow for transglycosylation to proceed.
The above-described methods of the invention were used to analyze the activity of three inhibitors. The assay included separate samples of tunicamycin, moenomycin, or bacitracin in various concentrations. These inhibitors were added to their respective samples after formation of lipid II, with the subsequent removal of the transglycosylation blocker Triton X-100®. After 2 hours incubation, aliquots of the solubilized products were analyzed by ascending paper chromatography. The amount of lipid II converted into peptidoglycan is represented by the amount of radioactivity measured in CPM remaining at the origin for each reaction.
Compounds TS0517 (chlorobiphenyl-vancomycin), TS0518 (chlorobiphenyl-desleucyl-vancomycin), TS0523, TS1017, and TS30663 were all assayed using the above-described assay, in which the inhibitors were added to their respective samples after formation of lipid II, with the subsequent removal of Triton X-100®. After 2 hours incubation, aliquots of the solubilized products were analyzed by ascending paper chromatography.

Assay [7] has as its system lipid II formation. Kind of assay: Lipid II formation assay in bacterial membranes. Type of assay: biochemical, E. coli. To be noted: for inhibition of lipid II formation: inhibitors added with labeled UDP-GlcNAc and UDP-MurNAc-tetrapeptide (data not shown).
Assay [8] has as its system transglycosylase. Kind of assay: Transglycosylase assay: peptidoglycan formation from lipid II accumulated in situ in bacterial membranes. Type of assay: biochemical, E. coli. To be noted: UDP-MurNAc-tetrapeptide substrate, inhibitors added after Triton X-100 removal, 2 hour incubation.
For assay [9], the system named is peptidoglycan synthesis. The conditions noted are these: at 100 μg/ml, A. viridens membranes; cited from earlier work.
The mark [10] stands for this setting: E. faecium 49624, vancomycin-sensitive.
Where [11] appears, read: E. faecium CL4931 (VanA), vancomycin resistant.
The mark [12] stands for this setting: E. faecalis 29212, vancomycin-sensitive.
[13] abbreviates: E. faecalis CL4877 (VanB), vancomycin resistant.
Where [14] appears, read: S. aureus 29213, vancomycin-sensitive.

Values after ≈ are worked out from the molar mass of the structure shown. “Also recorded” adds a separate entry of the source. Like-named read-outs stand apart in the source and are kept apart here. Marks after values point to notes of the source that are not given here. Where only a bound is given, the exact number is not on record here.

One may read the MIC as the smallest concentration in the dilution series that meets the test's criterion for growth inhibition. Low values mean a more susceptible organism, high ones a less susceptible organism.

Consider `CN[C@H](CC(C)C)C(=O)N[C@H]1C(=O)N[C@@H](CC(N)=O)C(=O)N[C@H]2C(=O)N[C@H]3C(=O)N[C@H](C(=O)N[C@H](C(=O)O)c4cc(O)cc(O)c4-c4cc3ccc4O)[C@H](O)c3ccc(c(Cl)c3)Oc3cc2cc(c3O[C@@H]2O[C@H](CO)[C@@H](O)[C@H](O)[C@H]2O[C@H]2C[C@](C)(NCc3ccc(-c4ccc(Cl)cc4)cc3)[C@H](O)[C@H](C)O2)Oc2ccc(cc2Cl)[C@H]1O` [CBP-vancomycin, chlorobiphenyl-vancomycin], for which the MIC in assay [1] (setting [10]) was 0.062 µg/mL (≈ 0.0376 µM); in [2] (setting [11]), 12.5 µg/mL (≈ 7.58 µM); in assay [3] (setting [12]), 0.25 µg/mL (≈ 0.152 µM); in assay [4] (setting [13]) it was 12.5 µg/mL (≈ 7.58 µM); in [5] (setting [14]), 0.25 µg/mL (≈ 0.152 µM). For the same molecule, the “inhibition of peptidoglycan formation” value in assay [6] is listed as “showed inhibition of peptidoglycan formation”. Besides, the “inhibition of lipid II formation” value in assay [7] was “no inhibition of lipid II formation”. In addition, the “inhibition of peptidoglycan synthesis” value in assay [8] is listed as “far more effective”.
As for `CN[C@H](CC(C)C)C(=O)N[C@H]1C(=O)N[C@@H](CC(N)=O)C(=O)N[C@H]2C(=O)N[C@H]3C(=O)N[C@H](C(=O)N[C@H](C(=O)O)c4cc(O)cc(O)c4-c4cc3ccc4O)[C@H](O)c3ccc(c(Cl)c3)Oc3cc2cc(c3O[C@@H]2O[C@H](CO)[C@@H](O)[C@H](O)[C@H]2O[C@H]2C[C@](C)(N)[C@H](O)[C@H](C)O2)Oc2ccc(cc2Cl)[C@H]1O` [Vancomycin, vancomycin], the minimum inhibitory concentration (MIC) in assay [1] (Enterococcus faecium, 49624) amounted to 1.25 µg/mL (≈ 0.863 µM); in assay [2] (Enterococcus faecium), 1250 µg/mL (≈ 863 µM); in assay [3] (Enterococcus faecalis, 29212), 3.12 µg/mL (≈ 2.15 µM); in [4] (Enterococcus faecalis), 1250 µg/mL (≈ 863 µM); in assay [5] (Staphylococcus aureus, 29213), 1.25 µg/mL (≈ 0.863 µM). Further, in [7] (substrate with D-ala-D-ala dipeptide moiety), the “inhibition of lipid II formation in vitro” value is reported as “capable of inhibiting the formation of lipid II in vitro”. The “inhibition of peptidoglycan synthesis” value in assay [8] was “only minimal inhibition”.
For the molecule tunicamycin, the results for the “inhibition of peptidoglycan formation” value in assay [6] and in assay [6] (listed as tunicamycin) were “no measurable effect” and “had no effect”, respectively.
As for moenomycin, the MIC was >200^c μg/ml in assay [1] (setting [10]); 0.25 µg/mL in assay [2] (setting [11]); 0.078 µg/mL in assay [3] (setting [12]); 0.13 µg/mL in assay [4] (setting [13]); 0.05 µg/mL in [5] (setting [14]). Also, the “potency in E. coli system relative to that measured in Allen et al. using A. viridens” value in [6] (UDP-MurNAc-pentapeptide or UDP-MurNAc-tetrapeptide) is on record as 4 orders of magnitude. Further, the “inhibition of peptidoglycan synthesis, UDP-MurNAc-pentapeptide vs UDP-MurNAc-tetrapeptide” value in assay [6] (comparison of the two precursor substrates) is “equipotent inhibition”. Besides, in assay [6], the “inhibition of peptidoglycan formation” value is “sensitive”. For the same molecule, the “IC50 / effect compared with assay without transglycosylation blocker” value in [6] (with vs without Triton X-100 blocker) is on record as “identical IC50 values; also recorded: substantially the same”. The “inhibition of peptidoglycan synthesis” value in [9] was < 35%.
As for `C[C@@H]1O[C@@H](O[C@H]2[C@H](Oc3c4cc5cc3Oc3ccc(cc3Cl)[C@@H](O)[C@@H](N)C(=O)N[C@@H](CC(N)=O)C(=O)N[C@H]5C(=O)NC3C(=O)NC(C(=O)N[C@H](C(=O)O)c5cc(O)cc(O)c5-c5cc3ccc5O)[C@H](O)c3ccc(c(Cl)c3)O4)O[C@H](CO)[C@@H](O)[C@@H]2O)C[C@](C)(NCc2ccc(-c3ccc(Cl)cc3)cc2)[C@@H]1O` (mixture of isomers) [CBP-dl-vancomycin, chlorobiphenyl-desleucyl-vancomycin], the MIC in [1] (setting [10]) stood at 1.56 µg/mL (≈ 1.02 µM); in [2] (setting [11]), 12.5 µg/mL (≈ 8.21 µM); in assay [3] (setting [12]) it was 3.12 µg/mL (≈ 2.05 µM); in [4] (setting [13]) it was 25 µg/mL (≈ 16.4 µM); in assay [5] (setting [14]), 3.12 µg/mL (≈ 2.05 µM). The “inhibition of peptidoglycan formation” value in assay [6] is listed as “showed inhibition of peptidoglycan formation”. Also, the “inhibition of lipid II formation” value in assay [7] is “no inhibition of lipid II formation”. Moreover, in [8], the “inhibition of peptidoglycan synthesis” value is listed as “far more effective”.
